Here are results for eight compounds from patent US11661400B2, “NADPH oxidase inhibitors, pharmaceutical composition comprising the same, and application thereof” (TAIWANJ PHARMACEUTICALS CO., LTD., priority 2018, dated 2023).

Assay [1] deals with T1, NOX4 (Homo sapiens, UniProt Q9NPH5).
T1 construct: expressed in transfected cells
T1 sequence (Q9NPH5 1-578): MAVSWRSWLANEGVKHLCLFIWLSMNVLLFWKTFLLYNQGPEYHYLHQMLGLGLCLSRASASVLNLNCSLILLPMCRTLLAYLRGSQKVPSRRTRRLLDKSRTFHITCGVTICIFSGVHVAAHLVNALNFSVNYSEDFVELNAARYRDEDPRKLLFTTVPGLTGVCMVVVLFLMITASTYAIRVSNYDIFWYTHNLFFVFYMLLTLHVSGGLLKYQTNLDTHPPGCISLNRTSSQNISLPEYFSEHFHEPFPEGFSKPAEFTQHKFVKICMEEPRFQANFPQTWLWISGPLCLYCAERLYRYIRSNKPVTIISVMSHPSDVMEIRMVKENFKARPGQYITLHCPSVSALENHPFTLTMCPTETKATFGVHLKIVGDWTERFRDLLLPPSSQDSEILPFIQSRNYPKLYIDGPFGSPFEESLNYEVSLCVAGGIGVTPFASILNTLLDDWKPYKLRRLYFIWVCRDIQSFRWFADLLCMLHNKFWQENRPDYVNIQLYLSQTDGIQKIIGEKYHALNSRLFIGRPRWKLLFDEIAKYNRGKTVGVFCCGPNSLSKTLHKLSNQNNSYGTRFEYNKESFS
T1 sequence (P13498 2-195 partner limits assumed): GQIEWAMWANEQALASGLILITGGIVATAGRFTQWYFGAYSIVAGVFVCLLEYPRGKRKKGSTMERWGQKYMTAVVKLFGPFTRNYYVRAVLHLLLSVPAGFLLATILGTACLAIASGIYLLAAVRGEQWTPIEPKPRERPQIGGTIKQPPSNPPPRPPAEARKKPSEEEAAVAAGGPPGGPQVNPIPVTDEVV
Put plainly: NOX4 HEK293 overexpression cell-based assay (Amplex Red H2O2). The conditions noted are these: HEK293 cells stably overexpressing NOX4, DMSO = 0, GKT137831 = 100; for inhibition at 1 µM: HEK293, 1000 nM; for inhibition at 0.1 µM: HEK293, 100 nM. Here is the method: Extracellular H2O2 measurement using Amplex™ Red Hydrogen Peroxide/Peroxidase Assay Kit (Catalog number: A22188; Invitrogen, Carlsbad, Calif., USA) was used to detect extracellular H2O2 release by HEK293 cells stably overexpressing NOX4. NOX4 clonal cells in log-phase growth were trypsinized, washed, and dispersed thoroughly. Following trypsinization, the cells (3×10^4) were resuspended in 100 μL of 1× Krebs-Ringer phosphate glucose (KRPG) buffer containing various concentrations of GKT137831 or test compounds and incubated at 37° C. for 30 min. Cells were mixed with 100 μL of Amplex Red reagent solution containing 50 μM Amplex Red and 0.1 units/mL of HRP in KRPG buffer; each assay condition was evaluated induplicate. The samples were incubated at 37° C. for 90 mins in the dark, and then centrifuged at 2,500 g for 5 mins. The supernatants were loaded to a 96 well plate, and then measured using a SpectraMax i3 Multiplate reader (Molecular Devices, Sunnyvale, Calif., USA) at 530 nm excitation and 590 nm emission respectively. DMSO and GKT137831 wells were applied as negative and positive controls, and the activities measured were set to 0 and 100, respectively.

In assay [2] the target is T2, NOX1 (Homo sapiens, UniProt Q9Y5S8).
T2 construct: endogenous in cells; host or cells: HT29
T2 sequence (Q9Y5S8 1-564): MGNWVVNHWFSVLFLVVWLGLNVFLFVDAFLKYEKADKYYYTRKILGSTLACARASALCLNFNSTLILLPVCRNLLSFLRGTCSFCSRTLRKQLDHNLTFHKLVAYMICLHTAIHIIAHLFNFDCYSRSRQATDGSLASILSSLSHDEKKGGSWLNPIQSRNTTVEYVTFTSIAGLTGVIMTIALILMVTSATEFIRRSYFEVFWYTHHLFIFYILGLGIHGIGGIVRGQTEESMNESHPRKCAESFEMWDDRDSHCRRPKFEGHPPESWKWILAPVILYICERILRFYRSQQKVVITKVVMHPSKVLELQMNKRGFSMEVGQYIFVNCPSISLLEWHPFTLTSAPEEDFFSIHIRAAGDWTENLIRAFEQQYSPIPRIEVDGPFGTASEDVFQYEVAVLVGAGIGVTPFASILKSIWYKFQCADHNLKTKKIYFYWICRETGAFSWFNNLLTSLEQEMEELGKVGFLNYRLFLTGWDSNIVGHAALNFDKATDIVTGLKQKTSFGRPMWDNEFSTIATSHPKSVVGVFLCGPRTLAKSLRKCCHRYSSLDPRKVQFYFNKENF
T2 sequence (P13498 2-195 partner limits assumed): T1 sequence (P13498 2-195 partner limits assumed)
Put plainly: NOX1 HT29 cell-based assay (luminol/HRP luminescence). As to conditions: HT29 cells, DMSO = 0%, GKT137831 = 100%; for inhibition at 0.1 µM / inhibition at 1 µM: HT-29. Here is the method: NOX1 HT29 Cell-Based Assay:
HT29 cells were cultured in T75 flask (Corning) and when 70-80% confluence was reached, cells were trypsinized, harvested in HBSS and counted. 1-2×10^5 cells were dispensed into individual wells in 70 μl final volume (96-well plates, white Corning). Cells were treated for 30-60 mins at 37° C. with 10 μl of GKT137831, DMSO and test compounds from their respective assay plates. This will correspond to a final concentration of 100 nM, 1000 nM GKT137831 or test compounds, and 0.1% DMSO. 20 μL of a mixture containing 100 μM luminol plus 0.4 units of HRP (final concentration) was added. Luminescence was quantified using a SpectraMax i3 Multiplate reader (Molecular Devices, Sunnyvale, Calif., USA). As designed, compounds that inhibit NOX1 activity will reduce cellular ROS production, leading to reduced probe-ROS interactions and reduced well luminescence. Compounds were tested in duplicate at a concentration of 100 nM and 1000 nM. DMSO and GKT137831 wells were applied as negative and positive controls, and the activities measured were set to 0% and 100%, respectively.

Assay [3] deals with T3, NOX2 (Homo sapiens, UniProt P04839).
T3 construct: HL-60 cells, rich in NOX2 expression; endogenous in cells; host or cells: DMSO-differentiated HL-60
T3 sequence (P04839 2-570 limits assumed): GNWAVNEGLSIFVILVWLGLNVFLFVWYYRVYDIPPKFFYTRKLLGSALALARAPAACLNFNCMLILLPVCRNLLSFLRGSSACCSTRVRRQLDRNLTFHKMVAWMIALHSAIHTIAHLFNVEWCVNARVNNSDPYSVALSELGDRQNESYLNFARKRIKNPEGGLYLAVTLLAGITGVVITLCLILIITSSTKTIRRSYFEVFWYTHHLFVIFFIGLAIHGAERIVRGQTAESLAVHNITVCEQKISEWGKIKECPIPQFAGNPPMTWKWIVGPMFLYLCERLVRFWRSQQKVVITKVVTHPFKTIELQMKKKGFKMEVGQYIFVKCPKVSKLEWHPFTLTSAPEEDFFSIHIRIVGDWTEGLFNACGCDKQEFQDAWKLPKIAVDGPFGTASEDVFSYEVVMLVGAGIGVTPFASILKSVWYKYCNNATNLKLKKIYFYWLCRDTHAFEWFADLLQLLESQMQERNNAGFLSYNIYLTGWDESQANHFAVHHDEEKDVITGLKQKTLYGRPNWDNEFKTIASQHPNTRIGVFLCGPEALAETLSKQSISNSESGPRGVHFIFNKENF
T3 sequence (P13498 2-195 partner limits assumed): T1 sequence (P13498 2-195 partner limits assumed)
Put plainly: NOX2 HL60 cell-based assay (PMA oxidative burst, L012 chemiluminescence). The conditions noted are these: DMSO-differentiated HL-60 cells, PMA-stimulated; for inhibition at 0.1 µM: HL-60, 100 nM; for inhibition at 1 µM: HL-60, 1000 nM. The procedure: NOX2 HL60 Cell-Based Assay:
HL-60 cells, rich in NOX2 expression, was stimulated to undergo oxidative burst by phorbol myristate acetate (PMA). The ROS produced during this process was measured using the O2^−-specific chemiluminescent probe L012. L012 was added to DMSO-differentiated HL-60 cell suspensions to a final concentration of 100 μM. Then, 80 μL aliquots of cell suspension (2.5×10^5 cells) were transferred to individual wells of a 96-well plate. Test compounds were directly added to the wells at the specified concentrations. Following a 30-60 mins incubation at 37° C. in the dark, the oxidative burst was initiated by the addition of 10 ng/mL PMA, and the chemiluminescence signal was recorded every 5 min over a period of 60 mins in a SpectraMax i3 Multiplate reader (Molecular Devices, Sunnyvale, Calif., USA). • NOX4 HEK293 Overexpression Cell-Based Assay: […]

Regarding `COc1ccc(-c2[nH]c3cc(OC)c(OC)cc3c(=O)c2O)cc1` [Compound 2, 3-hydroxy-6,7-dimethoxy-2-(4-methoxyphenyl) quinolin-4(1H)-one 2,2,2-trifluoroacetate], the “% Inhibition NOX4” value in assay [1] (100 nM) is given as “C (the percent of inhibition of NOX by the compounds ranges from 2000 to 49%)”. Further, the inhibition (in general, the share of the control response that was lost under treatment) at 1 µM in assay [1] was at least 80%; in assay [2] (1000 nM) it was at least 80%; in assay [3], 50 to 79%. Also, the inhibition at 0.1 µM in assay [2] (100 nM) is at least 80%; in assay [3] it was at most 19%.
With `Br.O=c1c(O)c(-c2ccc(O)cc2)[nH]c2cc(O)c(O)cc12` [Compound 3, 3,6,7-trihydroxy-2-(4-hydroxyphenyl) quinolin-4(1H)-one hydrobromide], the inhibition at 0.1 µM in assay [1] is at most 19%. Further, the figures for the inhibition at 1 µM in assay [1], in assay [2] (1000 nM) and in assay [3] were 50 to 79%, at least 80% and at least 80%, respectively. The “% Inhibition NOX1” value in assay [2] (100 nM) is given as “C (the percent of inhibition of NOX by the compounds ranges from 2000 to 49%)”. Besides, the “% Inhibition NOX2” value in assay [3] (100 nM) was “C (the percent of inhibition of NOX by the compounds ranges from 2000 to 49%)”.
As for `COc1cccc(-c2[nH]c3cc(OC)c(OC)cc3c(=O)c2O)c1` [Compound 4], the values for the inhibition at 0.1 µM in assay [1], in assay [2] (100 nM) and in assay [3] were at most 19%, 50 to 79% and at most 19%, respectively. Further, the inhibition at 1 µM was at least 80% in assay [1], at least 80% in assay [2] (1000 nM) and 50 to 79% in assay [3].
Consider `COc1cc2[nH]c(-c3ccccc3OC)c(O)c(=O)c2cc1OC` [Compound 5], for which the “% Inhibition NOX4” value in assay [1] (100 nM) is “C (the percent of inhibition of NOX by the compounds ranges from 2000 to 49%)”; in assay [1] (1000 nM), “A (the percent of inhibition of NOX by the compounds is larger than or equals to 80%)”. The “% Inhibition NOX1” value in assay [2] (100 nM) and in assay [2] (1000 nM) was “A (the percent of inhibition of NOX by the compounds is larger than or equals to 80%)” in each case. Also, the “% Inhibition NOX2” value in assay [3] (1000 nM) was “A (the percent of inhibition of NOX by the compounds is larger than or equals to 80%)”. In assay [3], the inhibition at 0.1 µM was at most 19%.
For the compound `COc1cc2[nH]c(-c3ccc(C)cc3)c(O)c(=O)c2cc1OC` [Compound 6], the “% Inhibition NOX4” value in assay [1] (100 nM) was “C (the percent of inhibition of NOX by the compounds ranges from 2000 to 49%)”. In addition, the results for the inhibition at 1 µM in assay [1], in assay [2] (1000 nM) and in assay [3] were 50 to 79%, at least 80% and at most 19%, respectively. Also, the inhibition at 0.1 µM in assay [2] (100 nM) was at least 80%; in assay [3] it was at most 19%.
As for `COc1cc2[nH]c(-c3cccs3)c(O)c(=O)c2cc1OC` [Compound 7], the inhibition at 0.1 µM in assay [1] was 50 to 79%; in assay [2] (100 nM) it was at least 80%; in assay [3], at most 19%. The inhibition at 1 µM was at least 80% in assay [1], at least 80% in assay [2] (1000 nM) and 50 to 79% in assay [3].
Turning to `COc1cc2[nH]c(-c3ccc(Cl)cc3)c(O)c(=O)c2cc1OC` [Compound 8], the inhibition at 0.1 µM in assay [1] and in assay [3] was at most 19% each time. Besides, the results for the inhibition at 1 µM in assay [1], in assay [2] (1000 nM) and in assay [3] were 50 to 79%, at least 80% and at most 19%, respectively. The “% Inhibition NOX1” value in assay [2] (100 nM, 0.1 µM) was “C (the percent of inhibition of NOX by the compounds ranges from 2000 to 49%)”.
Consider `COc1cc2[nH]c(-c3ccccc3C(F)(F)F)c(O)c(=O)c2cc1OC` [Compound 44, 3-hydroxy-6,7-dimethoxy-2-(2-(trifluoromethyl)phenyl)quinolin-4(1H)-one methanesulfonate], for which the “% Inhibition NOX2” value in assay [3] (100 nM, methanesulfonate, 0.1 µM) is “C (the percent of inhibition of NOX by the compounds ranges from 2000 to 49%)”; in assay [3] (1000 nM, methanesulfonate, 1 µM) it was “A (the percent of inhibition of NOX by the compounds is larger than or equals to 80%)”.
